Data: US20230087388A1, “INHIBITORS OF HUMAN DEUBIQUITINASES FOR THE TREATMENT OF CORONAVIRAL INFECTIONS” (Immunologik GmbH, priority 2020, published 2023)
“Also recorded” adds a separate entry of the source.

Tests used:
SARS-CoV-2 [1] = assay: qRT-PCR of viral RNA from SARS-CoV-2 infected Vero-B4 cells; assay type: cell-based; details: 10 μM, 3 d treatment, 3 independent experiments; compared with 10 μM chloroquine or hydroxychloroquine
Procedure: Therefore, virus-containing samples were quantified by real-time PCR AgPath-ID One-Step RT-PCR Kit from Ambion (Cat: 4387424) allowing reverse transcription, cDNA synthesis and PCR amplification in a single step. Samples were analyzed by 7500 software v2.3 (applied Bioscience). PCR primers were used according to 44: RdRp_fwd: 5′-GTG-ARA-TGG-TCA-TGT-GTG-GCG-G-3′ and RdRp_rev 5′-CAR-ATG-TTA-AAS-ACA-CTA-TTA-GCA-TA-C-3′. Probe was 5′-CAG-GTG-GAA-/ZEN/CCT-CAT-CAG-GAG-ATG-C-3′ (Label: FAM/IBFQ Iowa Black FQ). As positive control a specific target for E and RdRp gen of SARS-CoV2 was used and made by Integrated DNA Technologies. Control: 5′-TAA-TAC-GAC-TCA-CTA-TAG-GGT-ATT-GAG-TGA-AAT-GGT-CAT-GTG-TGG-CGG-TTC-ACT-ATA-TGT-TAA-ACC-AGG-TGG-AAC-CTC-ATC-AGG-AGA-TGC-CAC-AAC-TGC-TTA-TGC-TAA-TAG-TGT-TTT-TAA-CAT-TTG-GAA-GAG- ACA-GGT-ACG-TTA-ATA-GTT-AAT-AGC-GTA-CTT-CTT-TTT-CTT-GCT-TTC-GTG-GTA-TTC-TTG-CTA-GTT-ACA-CTA-GCC-ATC-CTT-ACT-GCG-CTT-CGA-TTG-TGT-GCG-TAC-TGC-TGC-AAT-ATT-GTT-3′. The annealing temperature was 60° C. The experimental procedure containing the infection, treatment and isolation of virions was the same as described for the Western blot analysis. The evaluation of qRT-PCR analysis clearly confirmed the results of the Western blot experiments.

SARS-CoV-2 [2] = assay type: cell-based
Vero-B4 cells = details: WST assay, 3 days
[3] = molecular target: T1, papain-like protease (PLpro) of SARS-CoV-2 (Severe acute respiratory syndrome coronavirus 2, UniProt P0DTD1); assay type: biochemical
T1 construct: They are the papain-like proteases (PLpro), encoded within nsp3; purchased R&D biosystems E-611-050

SMILES	amount of viral RNA (qRT-PCR) (SARS-CoV-2 [1])	inhibition of replication of SARS-CoV-2 in infected Vero-B4 cells (SARS-CoV-2 [2]; 10 μM PR-619)	SARS-CoV-2 proteins in Western Blot, virus and cell fraction (SARS-CoV-2 [2]; 10 μM PR-619, infected Vero-B4 cells, 3 dpi)	generation of SARS-CoV-2 proteins, densitometric evaluation (nucleoprotein virus fraction, spike S1 cell fraction) (SARS-CoV-2 [2]; 10 μM, 3 d treatment, 3 independent experiments, compared with 10 μM chloroquine or hydroxychloroquine)	concentration at which a clear toxic effect started (Vero-B4 cells)	inhibitory effect on SARS-CoV-2 PLpro activity ([3]; 20 nM recombinant PLpro, ISG15-AMC substrate, 30 min pretreatment, 120 min readout, PR-619 1.25-10 μM, P5091 1.5-6 μM)	reduction of activity of PLpro from SARS-CoV-2 (AUC) ([3]; 6 μM P5091, n=3)	reduction in the release of SARS-CoV-2 proteins (densitometric analysis) (SARS-CoV-2 [2]; 1.25 μM P5091, 3 d treatment, 3 independent experiments, untreated = 100%)	release of SARS-CoV-2 proteins / replication of SARS-CoV-2 (SARS-CoV-2 [2]; 5 μM P5091, infected Vero-B4 cells, 3 d treatment)	release of viral proteins in Western Blot (SARS-CoV-2 [2]; different concentrations of P5091, 3 d treatment)
N#CSc1cc(SC#N)c(N)nc1N [PR-619, 2,6-diaminopyridine-3,5-bis(thiocyanate)]	significantly reduced	broadly inhibit	clear reduction	significantly inhibited	over 20 μM	–	–	–	–	–
CC(=O)c1cc([N+](=O)[O-])c(Sc2cccc(Cl)c2Cl)s1 [P5091, 1-[5-[(2,3-dichlorophenyl)thio]-4-nitro-2-thienyl]-ethanone]	–	–	–	–	–	dose dependent reduction; also recorded: direct inhibitory action	80%	90%	complete block; also recorded: nearly completely inhibit	dose-dependent decrease
